The target of experiment [1] is MDA-9/Syntenin PDZ2 only domain (Homo sapiens, UniProt O00560). Put plainly: NMR [15N,1H] HSQC binding, counter domain. The note with it: up to 100 μM compound, 20 μM protein. As for the experimental part: FIG. 52. Left panel, Docked structure of compound 113B7 on the surface of MDA-9/Syntenin. The docked structure is supported by NMR chemical shift mapping data. The titration (see later in FIG. 55 for chemical shift mapping and titration) allows for the calculation of an upper limit for the dissociation constant of the complex, Kd<10 μM. […] The [^15N,^1FI]-HSQC spectra of MDA-9/Syntenin PDZ2 only domain are reported in the top right panel (apo at 20 μM; in presence of 100 μM 113B7). In the bottom right panel can be seen the spectra of the PDZ domain from X11/mint scaffold protein (33% identity with PDZ1) are reported in absence (20 μM protein) and in presence of 100 μM 113B7.
Chain of MDA-9/Syntenin PDZ2 only domain (O00560 198-273 limits assumed): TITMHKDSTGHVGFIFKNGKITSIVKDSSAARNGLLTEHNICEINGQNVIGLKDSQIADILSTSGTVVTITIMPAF
Based on these studies and NMR guided initial docking calculations, >50 bi-dentate compounds were synthesized and tested, leading to compound 113B7 (FIG. 52). […] Moreover, as a way to further address specificity of our ligands, we also tested the most promising compounds against two closely related domains to the PDZs of MDA-9/Syntenin, such as the PDZ tandem protein Harmonin (36% identity to PDZ2 of MDA-9/Syntenin and 31% to PDZ1 of MDA-9/syntenin) or PDZ domain from X11/mint scaffold protein (33% identity with PDZ1), and no significant binding to these counter-screen proteins was observed (FIG. 52).

For a further experiment, the system named is MMP-2 and MMP-9. Kind of experiment: western blotting and gelatin zymography of conditioned media. Type of experiment: cell-based. To be noted: 50 μM, 24 h. (Immunoblotting shows a protein as a band on a membrane.)
A further experiment relates to RM1-Luc cells. Kind of experiment: RM1-Luc intracardiac metastasis model. The note with it: I.P., 3 injections/first week. The experiment is classed as in vivo, C57BL/6 mice. As for the experimental part:
FIG. 19A-19F. PDZ1i suppresses prostate cancer metastasis and tumor progression. FIG. 19A) Survival data for athymic nude mice in which DMSO or PDZ1i pre-treated ARCaPM cells were injected. FIG. 19B) Survival data for athymic nude mice which were injected with (n=5, each group) ARCaPM-Luc (1×10^6 cells in 100 μl saline) through an intracardiac route. Mice received either vehicle or PDZ1i every alternative day (9 injections during the first […]) and maintained until they needed to be euthanized. FIG. 19C) Survival data for C57BL/6 mice injected through the intracardiac route with RM1-Luc. Vehicle or PDZ1i was administered through intraperitoneal injection every alternate day (total 3 injections during the first week). Survival curves were generated using 6 control vehicle-treated and 5 PDZ1i-treated. Kaplan—Meier survival curves were prepared using Graph Pad software. […] Graphical representation of the average prostate weights from control and treated groups. FIG. 19E and FIG. 19F) Photomicrographs representing the histological changes in prostate sections obtained from 6-month old Hi-Myc mice receiving either vehicle (FIG. 19E) or PDZ1i (FIG. 19F). To evaluate potential therapeutic efficacy of PDZ1i four sets of in vivo experiments were conducted. […]

Experiment [2] relates to HCC-driven tumor xenograft. Kind of experiment: HCC tumor xenograft, alone or with sorafenib. The note with it: in combination with sorafenib, I.P. Type of experiment: in vivo, athymic nude mice. As for the experimental part: FIGS. 48A-48C. Biological effects of PDZ1i in vivo in melanoma, HCC and PC. FIG. 48A) Compounds were administered I.P. 6 times within first two weeks following inoculation (I.V. injection) of B16 cells in C57BL/6 mice to evaluate the anti-metastatic efficacy. FIG. 48B) HCC-driven tumor xenograft was established in athymic nude mice. Compound alone or in combination with Sorafenib were given through I.P. Tumor volumes were considered as an end point of this study. FIG. 48C) Hi-Myc, a mouse model for spontaneous prostate cancer either received the compound or vehicle at the age of 8 weeks (immediate after onset of disease) for total 9 injections (3/week). After 16 weeks from the first injection, prostate were collected and pathologically evaluated. Representative photomicrographs (Left panel) and H and E stained slides (Right panel) from prostate were presented.

“Also recorded” adds a separate entry of the source.

Turning to `Cc1cc(NC(=O)c2nc3[nH]c4c(c(=O)n3n2)CCC4)c(C)cc1NC(=O)CCc1nnc(-c2ccccc2)o1` [113B7, N-(2,5-dimethyl-4-(3-(5-phenyl-1,3,4-oxadiazol-2-yl)propanamido)phenyl)-8-oxo-5,6,7,8-tetrahydro-4H-cyclopenta[d][1,2,4]triazolo[1,5-a]pyrimidine-2-carboxamide], the “binding to PDZ2 domain” value in experiment [1] was “does not bind appreciably; also recorded: does not appreciably bind; also recorded: do not significantly bind”. The “MMP-2 and MMP-9 protein and activity level” value in the experiment with MMP-2 and MMP-9 is “downregulates”. The “tumor burden in the lungs” value in the experiment on RM1-Luc cells was “significantly reduced the tumor burden in the lungs”. For the same compound, the HCC tumor growth result in experiment [2] is recorded as “synergistically inhibited HCC growth; also recorded: inhibit HCC tumor growth”.

The values are drawn from patent US11008325B2, “Inhibitors of cancer invasion, attachment, and/or metastasis” (VIRGINIA COMMONWEALTH UNIVERSITY, priority 2016, dated 2021).
